Laboratory results: PMC10700673, “A Smart Intracellular Self‐Assembling Bioorthogonal Raman Active Nanoprobe for Targeted Tumor Imaging” (Advanced Science, 2023)

Target: T1, Recombinant human legumain (Homo sapiens, UniProt Q99538)
T1 construct: purchased R&D systems
T1 sequence (Q99538 18-433): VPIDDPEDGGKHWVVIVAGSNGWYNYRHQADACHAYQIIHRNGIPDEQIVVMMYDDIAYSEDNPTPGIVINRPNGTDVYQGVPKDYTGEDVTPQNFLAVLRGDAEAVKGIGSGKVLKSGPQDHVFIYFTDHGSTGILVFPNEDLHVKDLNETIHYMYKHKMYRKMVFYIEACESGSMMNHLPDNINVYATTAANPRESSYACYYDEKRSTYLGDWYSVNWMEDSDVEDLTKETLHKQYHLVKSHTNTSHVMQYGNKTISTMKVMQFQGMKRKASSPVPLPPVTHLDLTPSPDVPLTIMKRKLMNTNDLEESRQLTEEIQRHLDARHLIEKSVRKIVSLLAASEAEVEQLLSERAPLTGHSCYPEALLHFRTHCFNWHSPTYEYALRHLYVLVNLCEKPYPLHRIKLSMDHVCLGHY
Assay: legumain- and GSH-triggered cleavage and condensation in solution (Raman, HPLC, MALDI)
Assay type: biochemical
Conditions: 37 °C
Experimental: The detailed synthetic procedures and characterization of the nanoSABER probe are given in Scheme S1 and Figures S1 and S2 (Supporting Information), respectively. The Raman signatures of nanoSABER (Figure 2a) display the vibrational stretching frequencies of alkyne and nitrile at 2121 and 2230 cm^−1, respectively. The ratio of alkyne/nitrile Raman peak intensity in the nanoSABER solutions was measured to be 0.21±0.04. Next, we studied the cleavage of the nanoSABER probe by legumain, leading to the formation of supramolecular self‐assembled nanoparticles. This was verified using high‐resolution matrix‐assisted laser desorption/ionization–time‐of‐flight mass spectrometry (MALDI), RS, and high‐performance liquid chromatography (HPLC). We first incubated 25 µM of nanoSABER probe with 250 µM GSH for 2 h at 37 °C. This reduced the disulfide bond of D‐cysteine, producing reduced nanoSABER, which was identified using HPLC and MALDI by the appearance of a peak at a retention time of 16.5 min (Figure 2b) and an observed mass of 1737.5 (Figure 2c). When nanoSABER was co‐incubated with 250 µM GSH and 3 µL (10 µg/50 µL) legumain enzyme for 3 h at 37 °C, the reduced nanoSABER that was generated in situ reacted with the legumain enzyme to form an active cleaved intermediate. The latter underwent intermolecular condensation to yield the alkyne‐dimer. […] Both HPLC fractions were collected and characterized by MALDI.
Figure 2 Optical and structural properties of nanoSABER (R6‐AAN‐alkyne‐nitrile) and alkyne‐dimer. a) Raman spectra of R6AAN‐alkyne and nanoSABER showing the alkyne and nitrile vibrational stretching frequency at 2121 cm^−1 and 2230 cm^−1, respectively, expressed as the mean ± standard deviation for n = 22 independent in vitro measurements. b) HPLC chromatogram of 250 µM nanoSABER (red) and 250 µM nanoSABER + 1 mM GSH incubated for 3 h (green), and 250 µM nanoSABER + 1 mM GSH + 3 µL (10 µg/50 µL) legumain incubated for 3 h (blue). c–e) HR‐MALDI‐TOF/MS spectra of reduced nanoSABER, cleaved R6‐AAN, and alkyne‐dimer. f) Raman spectra of 250 µM nanoSABER + 1 mM GSH + 3 µL (10 µg/50 µL) legumain incubated for 3 h, shown as the mean with a standard deviation of n = 22 independent in vitro measurements. g) Enzymatic conversion ratios of 250 µM nanoSABER in the presence of 1 mM GSH and 3 µL (10 µg/50 µL) legumain enzyme as a function of time, as calculated from the alkyne/nitrile Raman peak intensity ratio. h,i) TEM and DLS of alkyne‐dimer nanoparticles (red circles) after incubation of 250 µM nanoSABER + 1 mM GSH + 3 µL (10 µg/50 µL) legumain for 3 h at 37 °C. All subpanels reflect representative data from i n vitro experiments repeated three times unless stated.
To accurately evaluate the efficiency of the R6‐AAN‐alkyne‐nitrile nanoprobe, time‐dependent Raman measurements were performed (Figure 2g), where the ratio of alkyne/nitrile peak intensity was used as an indicator of the reaction progress. We found as the reaction progressed the alkyne/nitrile peak intensity increased from 0.22±0.01 to 4.4±0.12 and plateaued at a final value of 4.6±0.12 indicating almost complete conversion of nanoSABER to alkyne‐dimer within 3 h. […] To further get insight into the structural arrangements of the self‐assembled dimers, transmission electron microscopy (TEM) was performed. […]

## Ac‐Arg‐Arg‐Arg‐Arg‐Arg‐Arg‐Ala‐Ala‐Asn‐Cys(StBu)‐Pra‐Lys‐CBT [nanoSABER]
250 µM + 1 mM GSH + 3 µL (10 µg/50 µL) legumain, 3 h
  cleavage and condensation by legumain (HPLC retention time and MALDI mass): efficiently cleaved by legumain
250 µM nanoSABER + 1 mM GSH + 3 µL (10 µg/50 µL) legumain, from the alkyne/nitrile Raman ratio
  time to almost complete conversion to alkyne-dimer: ≤ 3 h
250 µM nanoSABER + 1 mM GSH + 3 µL (10 µg/50 µL) legumain, time-dependent Raman, initial value
  alkyne/nitrile peak intensity ratio, start of reaction: 0.22±0.01
250 µM nanoSABER + 1 mM GSH + 3 µL (10 µg/50 µL) legumain, time-dependent Raman, plateau
  alkyne/nitrile peak intensity ratio, plateau final value: 4.6±0.12
250 µM nanoSABER + 1 mM GSH + 3 µL (10 µg/50 µL) legumain, time-dependent Raman, value reached before plateau
  alkyne/nitrile peak intensity ratio, as the reaction progressed: 4.4±0.12
